From the NIST ThermoML archive (doi:10.1021/acs.jced.5b00428)
Numbers after ± are expanded uncertainties.

Legend:
[1] = mn = molality of the nth substance listed, in mol/kg; settings: 100 kPa, Liquid; for viscosity: Capillary tube (Ostwald / Ubbelohde) method; for mass density: Vibrating tube method
[2] = 101 kPa, Liquid, Capillary tube (Ostwald / Ubbelohde) method

O [water] + CCCCn1cc[n+](C)c1.[Br-]
viscosity ([1]; 288.15 K, m2 = 0): 1.138 ± 0.024 mPa·s | viscosity ([1]; 293.15 K, m2 = 0): 1.001 ± 0.021 mPa·s | viscosity ([1]; 298.15 K, m2 = 0): 0.89 ± 0.019 mPa·s | viscosity ([1]; 303.15 K, m2 = 0): 0.797 ± 0.017 mPa·s | viscosity ([1]; 308.15 K, m2 = 0): 0.719 ± 0.015 mPa·s | viscosity ([1]; 313.15 K, m2 = 0): 0.653 ± 0.014 mPa·s

O [water]
viscosity ([2]; 288.15 K): 1.138 ± 0.024 mPa·s | viscosity ([2]; 293.15 K): 1.001 ± 0.021 mPa·s | viscosity ([2]; 298.15 K): 0.89 ± 0.019 mPa·s | viscosity ([2]; 303.15 K): 0.797 ± 0.017 mPa·s | viscosity ([2]; 308.15 K): 0.719 ± 0.015 mPa·s | viscosity ([2]; 313.15 K): 0.653 ± 0.014 mPa·s

CCCCn1cc[n+](C)c1.[Br-] [1-butyl-3-methylimidazolium bromide] + O
viscosity ([1]; 288.15 K, m1 = 0.0046): 1.14 ± 0.024 mPa·s | viscosity ([1]; 288.15 K, m1 = 0.0141): 1.146 ± 0.024 mPa·s | viscosity ([1]; 288.15 K, m1 = 0.0231): 1.148 ± 0.024 mPa·s | mass density ([1]; 288.15 K, m1 = 0.0046): 999.318 ± 0.12 kg/m3 | mass density ([1]; 288.15 K, m1 = 0.0141): 999.804 ± 0.12 kg/m3 | mass density ([1]; 288.15 K, m1 = 0.0231): 1000.22 ± 0.12 kg/m3 | viscosity ([1]; 293.15 K, m1 = 0.0046): 1.003 ± 0.021 mPa·s | viscosity ([1]; 293.15 K, m1 = 0.0141): 1.008 ± 0.021 mPa·s | viscosity ([1]; 293.15 K, m1 = 0.0231): 1.012 ± 0.021 mPa·s | mass density ([1]; 293.15 K, m1 = 0.0046): 998.492 ± 0.12 kg/m3 | mass density ([1]; 293.15 K, m1 = 0.0141): 998.891 ± 0.12 kg/m3 | mass density ([1]; 293.15 K, m1 = 0.0231): 999.304 ± 0.12 kg/m3 | viscosity ([1]; 298.15 K, m1 = 0.0046): 0.891 ± 0.019 mPa·s | viscosity ([1]; 298.15 K, m1 = 0.0141): 0.895 ± 0.019 mPa·s | viscosity ([1]; 298.15 K, m1 = 0.0231): 0.897 ± 0.019 mPa·s | mass density ([1]; 298.15 K, m1 = 0.0046): 997.279 ± 0.12 kg/m3 | mass density ([1]; 298.15 K, m1 = 0.0141): 997.685 ± 0.12 kg/m3 | mass density ([1]; 298.15 K, m1 = 0.0231): 998.078 ± 0.12 kg/m3 | viscosity ([1]; 303.15 K, m1 = 0.0046): 0.8 ± 0.017 mPa·s | viscosity ([1]; 303.15 K, m1 = 0.0141): 0.8 ± 0.017 mPa·s | viscosity ([1]; 303.15 K, m1 = 0.0231): 0.804 ± 0.017 mPa·s | mass density ([1]; 303.15 K, m1 = 0.0046): 995.876 ± 0.13 kg/m3 | mass density ([1]; 303.15 K, m1 = 0.0141): 996.322 ± 0.12 kg/m3 | mass density ([1]; 303.15 K, m1 = 0.0231): 996.69 ± 0.12 kg/m3 | viscosity ([1]; 308.15 K, m1 = 0.0046): 0.721 ± 0.015 mPa·s | viscosity ([1]; 308.15 K, m1 = 0.0141): 0.722 ± 0.015 mPa·s | viscosity ([1]; 308.15 K, m1 = 0.0231): 0.725 ± 0.015 mPa·s | mass density ([1]; 308.15 K, m1 = 0.0046): 994.252 ± 0.13 kg/m3 | mass density ([1]; 308.15 K, m1 = 0.0141): 994.678 ± 0.13 kg/m3 | mass density ([1]; 308.15 K, m1 = 0.0231): 995.112 ± 0.12 kg/m3 | viscosity ([1]; 313.15 K, m1 = 0.0046): 0.654 ± 0.014 mPa·s | viscosity ([1]; 313.15 K, m1 = 0.0141): 0.656 ± 0.014 mPa·s | viscosity ([1]; 313.15 K, m1 = 0.0231): 0.657 ± 0.014 mPa·s | mass density ([1]; 313.15 K, m1 = 0.0046): 992.415 ± 0.13 kg/m3 | mass density ([1]; 313.15 K, m1 = 0.0141): 992.871 ± 0.12 kg/m3 | mass density ([1]; 313.15 K, m1 = 0.0231): 993.178 ± 0.12 kg/m3
